The subject of one assay is DU-145. Description: MTT assay for cell cytotoxicity. Format: cell-based, human. The following applies: Homo sapiens, 72 h, at least three independent experiments, read-out: MTT assay (IC50 ± SD) DU-145. As for the experimental part:
(§1) All of synthesis compounds were evaluated cell cytotoxicity by using MTT colorimetric assay on PC-3 and DU-145 cell lines. DU-145 and PC-3 are human hormone-refractory (androgen-independent) prostatic cancer cell lines from American Type Culture Collection (HTB-81™, ATCC, Rockville, MD)^125 and Bioresource Collection and Research Center (60122, BCRC, Taiwan)^126, respectively. Two of the "classical" cell lines were cultivated in RPMI-1640 medium supplemented with 5% fetal bovine serum (v/v), 100 U/mL penicillin, and […] streptomycin. Approximately 2 x 10^3 cells were seeded into each well of a 96-well plate and incubated in 5% CO2 at 37 °C for 24 h. To evaluate the in vitro cytotoxicity, all the synthetic compounds were dissolved in DMSO, prepared immediately before the experiments and diluted into the complete medium before being added to each well of a 96-well plate. Each compound was then added to the culture medium for designated various concentrations (0.15, 0.5, 1.5, 5, 15 µM). After 72 h, an amount of 100 µL of MTT (1 mg/mL) was added to each well, and the samples were incubated at 37 °C for 4 h. After removing the MTT solution, 100 µL of DMSO was added to each well and incubated at 37 °C for another 20 mins. The absorbency at 560 nm was measured by using an ELISA reader.
(§2) Results are expressed as mean values of at least three independent experiments. The IC50 values of testing compounds were described in Table 1. Table1. Effects of 10-Chloro-12H-thiochromeno[2,3-c]quinolin -12-one derivatives on cytotoxicity by MTT assay.

Another assay relates to PC-3. Description: MTT assay for cell cytotoxicity. The format is cell-based, human. The following applies: Homo sapiens, 72 h, at least three independent experiments, read-out: MTT assay (IC50 ± SD) PC-3. How it is done: as §1, §2

The values below come from EP3002287B1, “Thiochromeno[2,3-c]quinolin-12-one derivatives and their use as topoisomerase inhibitors” (National Defense Medical Center, priority 2014, dated 2016).

Some results are limits rather than exact numbers.

By IC50 is commonly meant the concentration that gives 50% inhibition. Consider `O=c1c2cc(Cl)ccc2sc2c(NCC3CCCCC3)nc3ccccc3c12` [Compound N24, 10-Chloro-6-((cyclohexylmethyl)amino)-12H-thiochromeno[2,3-c]quinolin-12-one], for which the IC50 amounted to 13.6 ± 3.88 µM in the assay on DU-145 and 14.8 ± 3.26 µM in the assay with PC-3.

For `O=c1c2cc(Cl)ccc2sc2c(NCc3ccccn3)nc3ccccc3c12` [Compound N26, 10-Chloro-6-((pyridin-2-ylmethyl)amino)-12H-thiochromeno[2,3-c]quinolin-12-one], the IC50 is 14.8 ± 1.99 µM in the assay with DU-145 and 14.2 ± 2.22 µM in the assay on PC-3.

Consider `O=c1c2cc(Cl)ccc2sc2c(NCc3ccc4c(c3)OCO4)nc3ccccc3c12` [Compound N27, 6-((Benzo[d][1,3]dioxol-5-ylmethyl)amino)-10-chloro-12H-thio chromeno[2,3-c]quinolin-12-one], for which the IC50 was 11.8 ± 5.83 µM in the assay with DU-145 and > 15 µM in the assay with PC-3.

For the compound `COc1ccccc1CNc1nc2ccccc2c2c(=O)c3cc(Cl)ccc3sc12` [Compound N28, 10-Chloro-6-((2-methoxybenzyl)amino)-12H-thiochromeno[2,3-c]quinolin-12-one], the values for the IC50 in the assay on DU-145 and with PC-3 were 9.61 ± 4.88 µM and 6.01 ± 3.31 µM, respectively.

With `COc1ccc(CNc2nc3ccccc3c3c(=O)c4cc(Cl)ccc4sc23)cc1OC` [Compound N29, 10-Chloro-6-((3,4-dimethoxybenzyl)amino)-12H-thiochromeno [2,3-c]quinolin-12-one], the IC50 in the assay with DU-145 worked out at 4.86 ± 0.99 µM; in the assay on PC-3, 6.2 ± 2.52 µM.

In the case of `O=c1c2cc(Cl)ccc2sc2c(NCCc3ccccc3)nc3ccccc3c12` [Compound N30, 10-Chloro-6-(phenethylamino)-12H-thiochromeno[2,3-c]quinol in-12-one], the IC50 with DU-145 and with PC-3 was > 15 µM each time.

On to `COc1ccc(CCNc2nc3ccccc3c3c(=O)c4cc(Cl)ccc4sc23)cc1` [Compound N31, 10-Chloro-6-((4-methoxyphenethyl)amino)-12H-thiochromeno[2,3-c]quinolin-12-one], for which the 50% inhibitory concentration (IC50) in the assay with DU-145 and in the assay on PC-3 was > 15 µM in each case.

Regarding `Nc1ccc(CCNc2nc3ccccc3c3c(=O)c4cc(Cl)ccc4sc23)cc1` [Compound N32, 6-((4-Aminophenethyl)amino)-10-chloro-12H-thiochromeno[2,3-c]quinolin-12-one], the IC50 in the assay with DU-145 came to 13.6 ± 1.39 µM; with PC-3, 10.1 ± 0.94 µM.

As to `NC(N)=Nc1nc2ccccc2c2c(=O)c3cc(Cl)ccc3sc12` [Compound N33, 2-(10-Chloro-12-oxo-12H-thiochromeno[2,3-c]quinolin-6-yl)gu anidine], the IC50 in the assay on DU-145 turned out to be 8.11 ± 1.37 µM; in the assay with PC-3, 6.13 ± 6.98 µM.

As to `O=c1c2cc(Cl)ccc2sc2c(NN3CCCCC3)nc3ccccc3c12` [Compound N34, 10-Chloro-6-(piperidin-1-ylamino)-12H-thiochromeno[2,3-c]qu inolin-12-one], the figures for the half-inhibitory concentration (IC50) in the assay with DU-145 and in the assay on PC-3 were 9.06 ± 1.95 µM and 8.22 ± 1.02 µM, respectively.

Take `COc1cc([C@@H]2c3cc4c(cc3[C@@H](O[C@@H]3O[C@@H]5CO[C@@H](C)O[C@H]5[C@H](O)[C@H]3O)[C@H]3COC(=O)[C@H]23)OCO4)cc(OC)c1O` [Etoposide (VP-16), Etoposide, reference compound]: the IC50 in the assay with DU-145 came out at 0.4 ± 0.01 µM; in the assay on PC-3, 4.33 ± 0.86 µM.

Consider `O=C1c2c(O)ccc(O)c2C(=O)c2c(NCCNCCO)ccc(NCCNCCO)c21` [Mitoxantrone, reference compound], for which the IC50 in the assay with DU-145 stood at 0.1 ± 0.01 µM; with PC-3, 0.39 ± 0.02 µM.
